Measurements published in paper PMC7255010, “Small-molecule activating SIRT6 elicits therapeutic effects and synergistically promotes anti-tumor activity of vitamin D3 in colorectal cancer” (Theranostics, 2020).

Key:
[1] = target: SIRT6 (Homo sapiens, UniProt Q8N6T7); assay: FDL assay of SIRT6 deacetylase activity (RHKK-Ac-AMC); format: biochemical; design: WT (wild-type) full-length human SIRT6 was inserted into the pET28a-LIC vector; made in house; host or cells: Escherichia coli BL21 (DE3); settings: activation of SIRT6 deacetylation, RHKK-Ac-AMC (75 µM), mean ± s.d., three independent experiments
SIRT6, sequence (Q8N6T7 whole entry): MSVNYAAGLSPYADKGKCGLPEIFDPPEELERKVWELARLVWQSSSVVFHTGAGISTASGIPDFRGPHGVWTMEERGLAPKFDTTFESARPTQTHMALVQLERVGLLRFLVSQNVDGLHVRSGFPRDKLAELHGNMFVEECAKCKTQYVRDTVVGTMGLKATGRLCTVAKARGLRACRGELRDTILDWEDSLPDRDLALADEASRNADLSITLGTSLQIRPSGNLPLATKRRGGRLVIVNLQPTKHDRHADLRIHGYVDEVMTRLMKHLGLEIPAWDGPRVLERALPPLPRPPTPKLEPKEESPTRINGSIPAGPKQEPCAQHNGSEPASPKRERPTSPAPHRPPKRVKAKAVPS
Method: According to previously described methods, WT (wild-type) full-length human SIRT6 was inserted into the pET28a-LIC vector (Addgene plasmid #26094). The plasmid was transformed into Escherichia coli BL21 (DE3) cells. Protein was purified using a nickel column and gel filtration. Purified protein was dialyzed into assay buffer (50 mM Tris-HCl [pH 8.0], 137 mM NaCl, 2.7 mM KCl, and 1 mM MgCl2) and used in all in vitro assays performed in this study.
For the assessment of SIRT6 deacetylase activity, 5 μM WT SIRT6 was incubated in a 50-μL reaction mixture (2.5 mM NAD^+, 75 μM RHKK-Ac-AMC, compounds/DMSO, and assay buffer) at 37 °C for 2 h, quenched with 40 mM nicotinamide, and developed with 6 mg/mL trypsin for another 30 min at 25 °C. […] Fluorescence intensity was measured using a microplate reader (Synergy H4 Hybrid Reader, BioTek) at excitation and emission wavelengths of 360 nm and 460 nm, respectively. EC50 values were calculated by fitting the data points with the dose-response function in GraphPad Prism V7 (GraphPad Software). Each experiment was independently repeated three times in technical triplicates.

[2] = Pharmacokinetic studies in mice; format: in vivo; design: t1/2 / F (bioavailability): dose or concentration left out as unconfirmed; settings: C57BL/6J mice
Method: Pharmacokinetic studies were performed by Shanghai Medicilon Inc, China, following standard protocols. Briefly, six-week-old male C57BL/6J mice were grouped randomly (n = 5 per group). […] Two administration formulations were prepared in the vehicle with 5% DMSO, 10% Solutol and 85% saline, with the pH adjusted to 7.0-8.0. After treatment, the mice were sacrificed, and their plasma samples were collected at 5 min, 15 min, 30 min, 1 h, 2 h, 4 h, 8 h, and 24 h. The drug concentration in plasma was analyzed by LC-MS/MS. Pharmacokinetic parameters were calculated using Analyst Software 1.6.3 from mean plasma concentration-time profiles. The area under the curve (AUC) was measured from time versus concentration data by the linear trapezoidal rule. […] The calculation was normalized to relative doses.

[3] = system: CYP24A1; assay: RT-qPCR of CYP24A1 mRNA in CRC cells; format: cell-based, human; settings: HCT116 and HT29 cells, 1,25(OH)2D3 (5 µM), 48 h
Method: Total RNA was extracted with TRIzol reagent (Invitrogen) according to the manufacturer's instructions. For cDNA synthesis, 1 μg of total RNA was reverse transcribed using a FastKing RT Kit (Tiangen). RT-qPCRs were run in triplicate using SYBR Green master mix (Roche) in an ABI 7900 Thermal Cycler (Applied Biosystems) according to the manufacturer's instructions. RT-qPCRs were performed in triplicate, and the mean cycle threshold (Ct) values were calculated for expression analysis. The mRNA levels of target genes were calculated using the 2^-ΔΔCt method. The expression data were normalized to β-actin expression levels and are presented as the mean ± s.e.m. of three independent experiments.

| SMILES | EC50 [1] [µM] | further results |
| --- | --- | --- |
| Cc1cc(F)c(Br)cc1NS(=O)(=O)c1ccc(NS(=O)(=O)c2cc(Cl)cc(Cl)c2)cc1CN1CCCCC1 [MDL-821] | 12.2 ± 0.9 | – |
| Cc1cc(F)c(Br)cc1NS(=O)(=O)c1ccc(NS(=O)(=O)c2cc(Cl)cc(Cl)c2)cc1CN1CCNCC1 [MDL-812] | 12.8 ± 1 | – |
| Cc1cc(F)c(Br)cc1NS(=O)(=O)c1ccc(NS(=O)(=O)c2cc(Cl)cc(Cl)c2)cc1CN1CCC(N2CCCCC2)CC1 [MDL-814] | 12.2 ± 0.7 | – |
| COC(=O)c1cc(NS(=O)(=O)c2cc(Cl)cc(Cl)c2)ccc1S(=O)(=O)Nc1cc(Br)c(F)cc1C [MDL-800, reference compound] | – | F (bioavailability) ([2]; IP vs IV, ratio of AUC normalized to dose): 71.33%; AUC0-t ([2]; IP, plasma, mean of five mice): 17831.51 ng·h/mL; AUC0-∞ ([2]; IP, plasma, mean of five mice): 17883.09 ng·h/mL; Cmax ([2]; IP, plasma, mean of five mice): 6610.46 ng/mL; MRT ([2]; IP, plasma, mean of five mice): 2.47 h; t1/2 ([2]; IP, plasma, mean of five mice): 2.07 h; tmax ([2]; IP, plasma, mean of five mice): 0.50 h |
| C=C1/C(=C\C=C2/CCC[C@]3(C)[C@@H]([C@H](C)CCCC(C)(C)O)CC[C@@H]23)C[C@@H](O)C[C@@H]1O [1,25(OH)2D3, 1,25-dihydroxyvitamin D3, reference compound] | – | CYP24A1 transcription [3]: dramatically induced CYP24A1 transcription |
| CCCCN1CCN(Cc2cc(NS(=O)(=O)c3cc(Cl)cc(Cl)c3)ccc2S(=O)(=O)Nc2cc(Br)c(F)cc2C)CC1 [MDL-816] | 7.1 ± 0.3 | – |
| COCCCN1CCN(Cc2cc(NS(=O)(=O)c3cc(Cl)cc(Cl)c3)ccc2S(=O)(=O)Nc2cc(Br)c(F)cc2C)CC1 [MDL-815] | 6.5 ± 0.4 | – |
| Cc1cc(F)c(Br)cc1NS(=O)(=O)c1ccc(NS(=O)(=O)c2cc(Cl)cc(Cl)c2)cc1CN1CCCC1CO (stereo not shown) [MDL-822] | 23.9 ± 1 | – |

Second part, led by results:

| EC50 [1] [µM] | SMILES | further results |
| --- | --- | --- |
| 34.1 ± 2.6 | CCN(C)Cc1cc(NS(=O)(=O)c2cc(Cl)cc(Cl)c2)ccc1S(=O)(=O)Nc1cc(Br)c(F)cc1C [MDL-819] | – |
| 43.6 ± 3.2 | Cc1cc(F)c(Br)cc1NS(=O)(=O)c1ccc(NS(=O)(=O)c2cc(Cl)cc(Cl)c2)cc1CN(C)C [MDL-818] | – |
| 15.4 ± 0.4 | CCCCN(CC)Cc1cc(NS(=O)(=O)c2cc(Cl)cc(Cl)c2)ccc1S(=O)(=O)Nc1cc(Br)c(F)cc1C [MDL-813] | – |
| 9.9 ± 1.5 | Cc1cc(F)c(Br)cc1NS(=O)(=O)c1ccc(NS(=O)(=O)c2cc(Cl)cc(Cl)c2)cc1CN1CCC(N(C)C)C1 (stereo not shown) [MDL-817] | – |
| 38.4 ± 1.8 | CCCN(C)Cc1cc(NS(=O)(=O)c2cc(Cl)cc(Cl)c2)ccc1S(=O)(=O)Nc1cc(Br)c(F)cc1C [MDL-820] | – |
